The assay addresses T1, M71 OR (Mus musculus, UniProt Q60893).
T1 construct: the increase of OSNs expressing the M71 OR results in the coalescence of labeled axons; expressed in transfected cells; host or cells: olfactory sensory neurons of living transgenic mice (4•M71Cα, 5•M71Cα), made by pronuclear injection of the M71 minigene
T1 sequence (Q60893 1-309): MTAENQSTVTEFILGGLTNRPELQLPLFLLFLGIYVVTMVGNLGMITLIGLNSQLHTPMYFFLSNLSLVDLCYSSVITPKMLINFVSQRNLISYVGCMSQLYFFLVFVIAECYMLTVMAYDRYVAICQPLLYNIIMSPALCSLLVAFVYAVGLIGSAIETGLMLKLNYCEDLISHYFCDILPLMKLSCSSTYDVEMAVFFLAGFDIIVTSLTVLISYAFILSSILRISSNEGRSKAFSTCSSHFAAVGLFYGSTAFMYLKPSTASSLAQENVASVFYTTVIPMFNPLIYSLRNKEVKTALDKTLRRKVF
Put plainly: In vivo synaptophluorin (SpH) imaging of odor-evoked glomerular activity in 4•M71Cα mice. The conditions noted are these: for efficacy [(dF/F)max]: 0.44 uM. An excerpt:
Because the M71 OR is dorsally expressed in the olfactory bulb, any cloned OR using the M71 transgenic backbone will coalesce its axons onto dorsally located glomeruli, which makes them accessible for optical imaging. Optical imaging was therefore used to functionally characterize transgenic M71 projections in the OB. To examine their functional properties odor-evoked activity was imaged from the OBs of mice expressing the genetically encoded activity reporter SpH in all mature OSNs. Simultaneously recordings were obtained from mice that are either hemizygous or homozygous for 4•M71Cα (gene-targeted M71-GFP is out crossed) and heterozygous for SpH and identify red M71 glomeruli. Seven different M71-selective ligands were used from ex vivo analysis of genetically defined M71 OSNs in gene-targeted mice: three of these ligands produced responses by SpH imaging: Acetophenone (ACP), 4-methyl acetophenone (4MACP) and 2,4-dimethyl acetophenone (24dMACP) when delivered at different odor dilutions varying between 0% and 15%. The maximum change in fluorescence [(dF/F)max] per odor concentration was calculated for each compound over a 14 s trial period having a pre-odor (3 s), odor (4 s) and post-odor (4 s) acquisition. dF/F values for all glomeruli were calculated with a standardized 50 μm window, which is fully contained in all imaged glomeruli of both hemi and homo 4•M71Cα animals. (FIG. 2A, FIG. 2B and FIG. 2C: Each data point represents the average (dF/F). of 4-16 glomeruli imaged). […] All imaged mice are heterozygous for omp-SpH.
Olfactometry: Odors (purchased form Sigma Aldrich) were delivered using a custom built olfactometer controlled by an Arduino board with custom shields operating Teflon solenoids (Neptune Research) and connected to two Mass Flow Controllers (Alicat Scientific, Inc) to dilute the clean air (N2, max flow is 2 Lpm) and to dilute the odorized air (max flow is 300 SCCM). Nitrogen (N2) was used as the vapor carrier to avoid oxidation. Odor concentrations are expressed a % dilutions of saturated vapor and as molar saturated vapor concentration (μM s.v.), calculated using published vapor pressures at 25° Celsius (US EPA, Estimation Programs Interface Suite, v 4.0. Flow diluted odors were delivered at 2 Lpm mixed prior to the delivery site with air odorized with varying dilutions of odorant taken from the saturated headspace of pre-cleaned amber vials with white polypropylene closures and septum (J. G. Finneran) containing 99% pure odorants. To avoid contamination of the olfactometer, odorized air was never passed through the Teflon valves. Instead, odors were mixed with N2 in T-shaped mixing chambers (Neptune Research) and delivered to the animal's nose using an arduino controlled vacuum system. […] Output of the olfactometer was calibrated using the tracer odor Pinene and a photoionization detector (PID; Aurora Scientific).
In vivo SpH Imaging: Mice were anesthetized using Ketamine (100 mg/kg)/Xylazin (5 mg/kg) and maintained with Isoflurane (2.5% in 02) and immobilized using a stereotactic head holding device (Narishige, Inc.). Optical signals for SpH and mCherry were recorded using an ANDOR Neo 5.5 sCMOS camera connected to a NIKON AZ100 epifluorescence microscope (NIS Elements) with a 4× objective (numerical aperture 0.4). Excitation wavelengths of 475 nm for SpH and 575 nm for mCherry and emission of 520 nm for SpH and 635 nm for mCherry were used to obtain images of the dorsolateral bulb through thinned skull overlaying the bulb of a freely breathing animal. Each imaging trial consisted of a pre-odor (3 s), odor (4 s) and post-odor (4 s) acquisition, with a total acquisition time per trial of 14 s (including 3 s of valve switch delay). Using serial code, the arduino controlling the olfactometer was integrated in the NIS Elements software, so that the entire image acquisition sequence and flow-diluted odor delivery is controlled by the microscope software. […]

Each structure is given as a SMILES string.

Regarding `CC(=O)c1ccc(C)cc1C` [24dMACP, 2,4-dimethyl acetophenone], the “glomerular activity (in vivo SpH imaging)” value (4•M71Cα animals, vapor phase, odor dilutions 0% to 15%) is given as “observed”. For the same compound, the “average highest (dF/F)max” value (hemizygous 4•M71Cα animals, ACP at 1.77 uM, 4MACP at 0.69 uM, 24dMACP at 0.66 uM) came to 4.15%. The “efficacy [(dF/F)max]” value (hemizygous animals) is 2.92%. Also, the “efficacy [average (dF/F)max]” value (hemizygous animals, delivered at the same concentration, ˜0.70 uM) is recorded as 4.15%. Further, the “highest efficacy [(dF/F)max]” value (homozygous 4•M71Cα animals, ACP at 2.66 uM, 4MACP at 0.69 uM, 24dMACP at 0.46 uM) turned out to be 4.92%. For the same compound, for the setting “homozygous animals”, the “average efficacy (of all concentrations and odors)” value turned out to be 4.92%; the “efficacy [(dF/F)max]” value stood at 4.92%.

Values taken from patent US12063914B2, “DNA sequence that increases odorant receptor representation in the olfactory system” (Research Foundation of the City University of New York, priority 2015, dated 2024).
